Assay results reported in article PMC11314621, “Cheminformatics-Guided Exploration of Synthetic Marine Natural Product-Inspired Brominated Indole-3-Glyoxylamides and Their Potentials for Drug Discovery” (Molecules, 2024).
pIC50: −log10 of the molar value. Where two headings read alike, the source gives them in different places.

How the values were obtained:
P. falciparum Dd2 = experiment: Antiplasmodial image-based assay, Dd2 strain; assay type: cell-based, Plasmodium falciparum; conditions: chloroquine-resistant P. falciparum strain Dd2; for pIC50: Plasmodium falciparum, control compounds; for % Inhibition @ 60 µM, Dd2: 72 h
Experimental: (§1) An anti-plasmodial imaging assay reported by Duffy and Avery was used to examine the antiplasmodial activities of synthetic indoles 25, 26, 36, 37, 38, 40, 41, 43, 45, 46, 47, 48, 50 and 51. All compounds were diluted to […] in DMSO and tested at three increasing concentrations from 0.4 nM–40 μM per log dose in a 16-point CRC ([…]) parasite strains of Plasmodium falciparum. […] Normalised percent inhibition data was obtained using in-plate positive (4 μM DHA) and negative (0.4% DMSO) controls, which were then used to calculate IC50 values. Compounds were incubated in CellCarrier-384 well imaging plates in the presence of 2% parasitemia (3D7 or Dd2) at 0.3% hematocrit in a total assay volume of 50 μL for 72 h at 37 °C, 5% O2, 5% CO2 and 90% N2. After incubation, plates were stained with 4′,6-diamidino-2-phenylindole (DAPI) and imaged using an Opera Phenix high-content imaging system (Revvity, Mulgrave, Victoria, Australia). Images were analysed using Harmony (Revvity) software (version 3), while percent parasite inhibition was calculated using the minimum (0.4% DMSO) and (DHA). IC50 values were determined by plotting % inhibition against log dose and analysed using nonlinear regression and sigmoidal dose-response using GraphPad Prism version 6.

P. falciparum 3D7 = experiment: Antiplasmodial image-based assay, 3D7 strain; assay type: cell-based, Plasmodium falciparum; conditions: chloroquine-sensitive P. falciparum strain 3D7; for inhibition / pIC50: Plasmodium falciparum; for inhibition: 3D7, 72 h; for inhibition / % Inhibition @ 60 µM, 3D7: 60 µM, 72 h; for pIC50: control compounds
Experimental: as §1

[1] = molecular target: T1, α-chymotrypsin from bovine pancreas (Bos taurus, UniProt P00766); experiment: Serine protease assay, chymotrypsin; assay type: biochemical; conditions: 10 µM; remaining enzyme activity
T1 construct: α-chymotrypsin from bovine pancreas (Sigma, C4129); purchased Sigma C4129; host or cells: bovine pancreas
Experimental: (§2) Serine protease-inhibitory activities for 25–56 were determined in 96 well plates. Each inhibitor was initially tested in duplicate against elastase and chymotrypsin at 10 µM. […] Assays for the inhibition of elastase were undertaken using high-purity porcine pancreatic elastase (Sigma, Melbourne, Victoria, Australia, E0258) in an assay buffer of 50 mM Tris-HCl (pH 8.0) at room temperature. Dilutions of each inhibitor (originally resuspended in DMSO) were prepared in triplicate and then preincubated with 375 ng of elastase for 15 min at room temperature in a total reaction volume of 85 µL. Following this preincubation, 15 µL of 2 mM N-succinyl-Ala-Ala-Ala-p-nitroanilide (Sigma, S4760) in assay buffer was added to each well and kinetic measurement of absorbance at 405 nm (Tecan Spark Plate Reader, Zürich, Switzerland) was undertaken for 30 min. […] Dilutions of each inhibitor were prepared in triplicate and preincubated with 5 µg of chymotrypsin for 10 min at 37 °C in a total reaction volume of 75 µL. After preincubation, 25 µL of 2 mM N-succinyl-Gly-Gly-Phe-p-nitroanilide (Sigma, S1899) was added to each well and kinetic measurement of absorbance at 405 nm was undertaken for 30 min. Inhibitory activity was determined by comparison of the slope of the reaction curve for multiple dilutions of the inhibitor to that of an equivalent solvent control and expressed as IC50 ± standard deviation.

[2] = molecular target: T2, porcine pancreatic elastase (Sus scrofa, UniProt P00772); experiment: Serine protease assay, elastase; assay type: biochemical; conditions: remaining enzyme activity
T2 construct: high-purity porcine pancreatic elastase (Sigma, Melbourne, Victoria, Australia, E0258); purchased Sigma E0258
T2 sequence (P00772 27-266): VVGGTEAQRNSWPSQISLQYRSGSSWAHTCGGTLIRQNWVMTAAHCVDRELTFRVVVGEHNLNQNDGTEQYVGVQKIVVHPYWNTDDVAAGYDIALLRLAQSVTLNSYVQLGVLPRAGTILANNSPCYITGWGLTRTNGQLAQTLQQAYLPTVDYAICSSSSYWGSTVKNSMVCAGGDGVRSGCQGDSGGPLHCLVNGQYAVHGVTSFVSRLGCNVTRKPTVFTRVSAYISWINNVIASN
Experimental: as §2

SARS-CoV-2 3CLpro = molecular target: T3, SARS-CoV-2 3CLpro (Severe acute respiratory syndrome coronavirus 2, UniProt P0DTD1); experiment: biochemical
T3 construct: Each well contained 25 nM of SARS-CoV-2 3CL^Pro and eCFP-Venus biosensor (500 nM)

HEK293 cells = experiment: HEK293 cell cytotoxicity; assay type: cell-based; conditions: human embryonic kidney cell line

SMILES	% enzyme activity @ 10 µM, chymotrypsin [1]	% enzyme activity @ 10 µM, elastase [2]	% inhibition @ 20 µM, No DTT (SARS-CoV-2 3CLpro; 20 µM, no DTT)	% inhibition @ 20 µM, DTT (SARS-CoV-2 3CLpro; 20 µM, with DTT (4 mM))	other results
C[C@H]1[C@@H](O)O[C@@H]2O[C@@]3(C)CC[C@H]4[C@H](C)CC[C@@H]1[C@@]24OO3 [Dihydroartemisinin, reference compound]	–	–	–	–	pIC50 (P. falciparum Dd2): 8.77; inhibition (P. falciparum 3D7): 100%; pIC50 (P. falciparum 3D7): 8.89
N=C(N)NCCC[C@H](NC(=O)C(=O)c1c[nH]c2ccc(Br)cc12)C(=O)O [Compound 29, 5-bromoindolyl-3-glyoxyl-L-arginine]	88.8%	100.8%	13.8%	2.4%	–
CC(C)[C@@H](NC(=O)C(=O)c1c[nH]c2cc(Br)ccc12)C(=O)O [Compound 56, 6-bromoindolyl-3-glyoxyl-D-valine]	94.0%	104.4%	6.8%	2.7%	–
COc1ccc(C[C@H](N)C(=O)N[C@H]2[C@@H](O)[C@H](n3cnc4c(N(C)C)ncnc43)O[C@@H]2CO)cc1 [Puromycin, reference compound]	–	–	–	–	pIC50 (HEK293 cells; HEK293): 6.17; pIC50 (P. falciparum Dd2): 7.06; pIC50 (P. falciparum 3D7): 7.10
N=C(N)NCCC[C@H](NC(=O)C(=O)c1c[nH]c2cc(Br)ccc12)C(=O)O [Compound 31, 6-bromoindolyl-3-glyoxyl-L-arginine]	99.5%	99.3%	4.3%	2.4%	–
O=C(N[C@H](Cc1c[nH]c2ccccc12)C(=O)O)C(=O)c1c[nH]c2cc(Br)ccc12 [Compound 48, 6-bromoindolyl-3-glyoxyl-D-tryptophan]	83.6%	91.1%	20.8%	2.0%	% Inhibition @ 60 µM, HEK293 (HEK293 cells): 16.0%; % Inhibition @ 60 µM, Dd2 (P. falciparum Dd2): 97.5%; % Inhibition @ 60 µM, 3D7 (P. falciparum 3D7): 99.0%
N=C(N)NCCC[C@@H](NC(=O)C(=O)c1c[nH]c2ccc(Br)cc12)C(=O)O [Compound 30, 5-bromoindolyl-3-glyoxyl-D-arginine]	86.3%	96.2%	10.1%	1.0%	–
O=C(N[C@@H](Cc1ccc(O)cc1)C(=O)O)C(=O)c1c[nH]c2ccc(Br)cc12 [Compound 49, 5-bromoindolyl-3-glyoxyl-L-tyrosine]	82.9%	99.5%	15.0%	1.9%	–
C[C@@H](NC(=O)C(=O)c1c[nH]c2cc(Br)ccc12)C(=O)O [Compound 28, 6-bromoindolyl-3-glyoxyl-D-alanine]	92.1%	107.4%	1.7%	0.8%	–
O=C(N[C@@H](CO)C(=O)O)C(=O)c1c[nH]c2cc(Br)ccc12 [Compound 44, 6-bromoindolyl-3-glyoxyl-L-serine]	97.1%	99.0%	7.3%	2.9%	–
N=C(N)NCCC[C@@H](NC(=O)C(=O)c1c[nH]c2cc(Br)ccc12)C(=O)O [Compound 32, 6-bromoindolyl-3-glyoxyl-D-arginine]	99.2%	102.3%	3.0%	0.8%	–
CC(C)[C@H](NC(=O)C(=O)c1c[nH]c2ccc(Br)cc12)C(=O)O [Compound 53, 5-bromoindolyl-3-glyoxyl-L-valine]	91.6%	101.3%	1.9%	1.3%	–
O=C(N[C@@H](CO)C(=O)O)C(=O)c1c[nH]c2ccc(Br)cc12 [Compound 43, 5-bromoindolyl-3-glyoxyl-L-serine]	96.1%	101.4%	105.5%	2.0%	% Inhibition @ 60 µM, HEK293 (HEK293 cells): 21.0%; % Inhibition @ 60 µM, Dd2 (P. falciparum Dd2): 1.0%; % Inhibition @ 60 µM, 3D7 (P. falciparum 3D7): 1.0%; pIC50 (SARS-CoV-2 3CLpro; no DTT): 5.92
O=C(N[C@H](Cc1ccc(O)cc1)C(=O)O)C(=O)c1c[nH]c2ccc(Br)cc12 [Compound 50, 5-bromoindolyl-3-glyoxyl-D-tyrosine]	89.2%	95.3%	6.1%	0.9%	% Inhibition @ 60 µM, HEK293 (HEK293 cells): 20.5%; % Inhibition @ 60 µM, Dd2 (P. falciparum Dd2): 97.5%; % Inhibition @ 60 µM, 3D7 (P. falciparum 3D7): 99.0%
CC(C)[C@H](NC(=O)C(=O)c1c[nH]c2cc(Br)ccc12)C(=O)O [Compound 55, 6-bromoindolyl-3-glyoxyl-L-valine]	105.0%	88.9%	6.8%	3.0%	–
CCc1nc(N)nc(N)c1-c1ccc(Cl)cc1 [Pyrimethamine, reference compound]	–	–	–	–	inhibition (P. falciparum 3D7): -10%; pIC50 (P. falciparum 3D7): 7.85
CC(C)[C@@H](NC(=O)C(=O)c1c[nH]c2ccc(Br)cc12)C(=O)O [Compound 54, 5-bromoindolyl-3-glyoxyl-D-valine]	97.3%	105.4%	1.3%	1.0%	–
O=C(N[C@@H](Cc1c[nH]c2ccccc12)C(=O)O)C(=O)c1c[nH]c2cc(Br)ccc12 [Compound 47, 6-bromoindolyl-3-glyoxyl-L-tryptophan]	99.6%	89.5%	24.4%	4.1%	% Inhibition @ 60 µM, HEK293 (HEK293 cells): 14.0%; % Inhibition @ 60 µM, Dd2 (P. falciparum Dd2): 20.0%; % Inhibition @ 60 µM, 3D7 (P. falciparum 3D7): 14.0%
O=c1c2ccccc2[se]n1-c1ccccc1 [Ebselen, reference compound]	–	–	–	–	inhibition at 20 µM (SARS-CoV-2 3CLpro; read-out: % inhibition @ 20 µM, DTT): 0.2%; inhibition at 20 µM (SARS-CoV-2 3CLpro; read-out: % inhibition @ 20 µM, No DTT): 114%
CCN(CC)CCCC(C)Nc1ccnc2cc(Cl)ccc12 (stereo not shown) [Chloroquine, reference compound]	–	–	–	–	pIC50 (P. falciparum Dd2): 6.16; pIC50 (P. falciparum 3D7): 7.11
C[C@H](NC(=O)C(=O)c1c[nH]c2cc(Br)ccc12)C(=O)O [Compound 27, 6-bromoindolyl-3-glyoxyl-L-alanine]	94.4%	109.6%	1.9%	1.3%	–
O=C(N[C@@H](CSSC[C@H](NC(=O)C(=O)c1c[nH]c2ccc(Br)cc12)C(=O)O)C(=O)O)C(=O)c1c[nH]c2ccc(Br)cc12 [Compound 33, 5-bromoindolyl-3-glyoxyl-L-cystine]	–	–	–	–	remaining activity at 10 µM [1]: 94.7%; remaining activity at 10 µM [2]: 107%; inhibition at 20 µM (SARS-CoV-2 3CLpro; 20 µM, no DTT, read-out: % inhibition @ 20 µM, No DTT): 64.1%; inhibition at 20 µM (SARS-CoV-2 3CLpro; 20 µM, with DTT (4 mM), read-out: % inhibition @ 20 µM, DTT): 2%; pIC50 (SARS-CoV-2 3CLpro; no DTT): 4.90
